{"source": "patent US5858985A", "about": "“Treatment of asthma with fructose-1,6-diphosphate” (priority 1997, dated 1999)", "key": {"[1]": {"test_system": "Sprague-Dawley rats injected with compound 48/80", "test": "compound 48/80-induced shock (histamine release by mast cells) in rats", "format": "in vivo, rat", "protocol": "As noted above, the release of histamine by mast cells plays a significant role in aggravating asthma attacks. FDP was evaluated to determine whether it could help suppress histamine release by mast cells, in tests that use a compound called \"48/80\", which is known to trigger the release of histamine by mast cells. This compound, if injected into an animal at an appropriate dosage, will trigger sufficient histamine release to send the animal into anaphylactic shock, which poses a lethal challenge. Useful physiological measurements can be made during the test period, and if mortality is studied as an endpoint, an animal is deemed to survive if it lives for 48 hours after injection of the 48/80 compound.\nAnesthetized male Sprague-Dawley rats (n=20) weighing 448±7.4 gm were randomly assigned into 2 groups. Animals in the FDP-treated group were injected intraperitoneally (IP) with a 10% (w/v) solution of FDP in water, at a dosage of 2.5 gm/kg (i.e., 2.5 grams of FDP per kilogram of body weight). […] Thirty minutes later, all rats were injected IP with compound 48/80, at 5 mg/kg."}, "[2]": {"test_system": "membrane-bonded Na+--K+ ATPase enzymes", "format": "biochemical, rat", "details": "pretreatment with 500 μM FDP", "quoted_text": "Oleander toxins were prepared by air-drying leaves from red-flowering Nerium oleander plants for 4 days, pulverizing the leaves to a fine powder in a blender, and extracting the leaves in a 95% ethyl alcohol solution for 10 days. After extraction, the tincture was filtered, and part of the alcohol solvent was removed by flash evaporation, to a volume where 1 gram of crude drug was equal to 1 ml of alcohol solution. The extract was stored as a stock solution at 0° C., and periodically analyzed for alkaloid content by high pressure liquid chromatography, using oleandrin as an external standard. […]\nWhen ready for use, intact isolated rat hearts were transferred to ice-cold homogenizing medium (50 mM Na2 HPO4, 10 mM Na2 EDTA, and 25 mM NaF, pH 7.4). […]\nThe pellet obtained after this centrifugation, consisting of crude membrane vesicles, was suspended in a storage buffer (30 mM histidine, 0.25 M sucrose, 10 mM EDTA, and 10 mM NaF, pH 7.5) and stored at -80° C. until use. Protein content was determined using a Biorad protein assay kit, with gamma globulin as a standard.\nThe Na^+ --K^+ ATPase activity levels for these sarcolemmal membrane preparations was determined calorimetrically by measuring how much inorganic phosphate (Pi) was liberated when the ATPase enzyme hydrolyzed ATP to release phosphate groups. […]"}, "rat T-lymphocyte": {"test_system": "rat T-lymphocyte", "test": "inhibition of T-lymphocyte proliferation after stimulation with Con-A ((3H)-thymidine incorporation)", "format": "cell-based", "protocol": "Lymphocyte cells were isolated either from human venous blood or rat spleen. The cells were suspended in Dulbecco's media. A manual cell count was done using 0.1 ml of Trypan blue and 0.1 ml of the cell media mixture. […] Tissue culture multi-well plates were used for incubation and in each well 0.1 ml of cell suspension was placed. To the FDP treatment wells (in triplicate) were added 0.1 ml of FDP from 10% stock solution, in serial dilutions which included 1:10, 1:100, 1:250, 1:500; 1:1000, and 1:10000). Cyclosporine treatment wells received 0.1 ml cyclosporine A, at various concentrations including 500 ng/ml, 50 ng/ml; 5 ng/ml and 0.5 ng/ml. All wells except control wells received concanavalin A (conA) at […] (0.01 ml). The final volume for all wells was 0.21 ml.\nAfter incubation, the cells were pulsed in 5% Co2 at 37° C. with 1 μCi of (^3 H)-thymidine (i.e., the cells were incubated for a controlled period of time with thymidine, one of the building blocks of DNA, which contained tritium, a radioactive isotope of hydrogen). The cells were harvested, and washed to remove any tritiated thymidine that had not been incorporated into new DNA. The radioactivity levels of the treated cells were then measured, using a scintillation counter. The results, in Table 2, are reported as counts/min."}, "[3]": {"test_system": "RNA encoding the IL-2 protein", "test": "IL-2 RNA expression in ConA-stimulated lymphocytes (reverse transcription, PCR, densitometry)", "format": "cell-based", "details": "rat lymphocytes pre-treated with FDP, ConA stimulation, 5 days of incubation", "protocol": "The Applicant also investigated the expression of cytokines by T-lymphocytes. Isolated lymphocytes were obtained from rats, and incubated with stimulation by ConA treatment, as described above; treated cells were pre-treated with FDP, as described above, while control cells were not treated with FDP. After 5 days of incubation, RNA was extracted from the lymphocytes, using RNA-stat60. The integrity of RNA samples was evaluated by use of agarose-formaldehyde gel electrophoresis, and its quantity was determined spectrophotometrically.\nThe RNA was transcribed into complementary DNA (cDNA), using a reverse transcriptase enzyme. 10 μl of solution containing 1 μg of total cellular RNA was heated at 65° C. for 10 min, and then chilled on ice. To this solution was added 10 μl of a mixture containing 2× reverse transcriptase buffer (100 mM Tris-HCl, pH 8.3, 150 mM KC1, 6 MM MgCl2), 1 μg oligo(dT)12-18, 100 μg/ml of acetylated bovine serum albumin, 0.5 mM mixed deoxynucleotides (dNTP), 10 units of RNAasin, and 100 units of MMLV reverse transcriptase enzyme. The mixture was incubated for 45 min at 35° C., then chilled on ice.\nThe cDNA sequences for three specific interleukins (IL-1, IL-2, and IL-6) were then amplified, using polymerase chain reaction (PCR) techniques, using previously published sense and anti-sense primer sequences for rat IL-1, rat IL-2, and rat IL-6. […]"}, "human IL-2": {"test_system": "human IL-2", "test": "interleukin-2 production by human T-cells stimulated by Con-A (ELISA)", "format": "cell-based", "details": "all tested FDP concentrations, result in words", "protocol": "In addition, the amounts of IL-2 released by human T-cells were also evaluated, using ConA stimulation in the presence or absence of FDP. These tests used a commercially available human immunoassay kit (Inter Test-2X IL-2 Elisa Kit, sold by Genzyme Corp., Cambridge, Mass.) which uses monoclonal antibodies that bind specifically to human IL-2. The results, in Table 3, indicate that FDP, at all tested concentrations, abolished IL-2 production by the stimulated human T-lymphocytes. IL-2 concentrations are expressed in picograms per milliliter of media."}, "[4]": {"test_system": "mongrel dogs challenged with methacholine", "test": "acute experimental asthma (bronchospasm) induced in dogs by methacholine inhalation", "format": "in vivo, dog"}, "human volunteers": {"test_system": "human volunteers", "test": "lung function (peak expiratory flow rate) in healthy human volunteers after nebulized inhalation", "format": "in vivo", "protocol": "When adjusted to deliver 56-68 L/min with a 5-6 L/min oxygen flow, the final oxygen content was 28%. The output tube from the nebulizer was connected to a standard face mask, which was placed on the face of the subject. The bottle of the nebulizer contained 100 ml of the FDP solution. The FDP dose delivered in the mist, during the 5 consecutive breaths, was calculated to be about 12 mg.\nPrior to the FDP inhalation, in each volunteer, 3 consecutive peak expiratory flow rate (PEFR) measurements were made with the aid of an Astech Peak Flow Meter (Center Laboratories, Port Washington, N.Y. 11050). Briefly, these tests involved having each volunteer take as deep a breath as possible, and then blow as hard as possible into the meter. This was done over a period of a couple of minutes, giving the volunteer some time to catch their breath before and after each effort. The mean of these three measurements was considered as the baseline PEFR value for that person. Baseline heart rates, systolic and diastolic blood pressures, and body temperatures were also measured.\nFDP inhalations (5 breaths in each set) were then made, approximately 15, 30, 45, 75, 105 and 165 minutes after the baseline measurements had been made. On several occasions, FDP inhalations were also made, 2 and 5 minutes after the baseline measurements were taken. After each such inhalation, three different expirations were measured, all within a couple of minutes after the FDP inhalation had been completed. The various measurements made after FDP inhalation were compared with the baseline values, before FDP administration. The t-test was used to compare paired observations, and differences were considered significant only when the two-tailed p value was <0.05."}, "[5]": {"test_system": "human test subject with chronic cough", "test": "repeated FDP inhalation in a volunteer with chronic cough secondary to allergic bronchitis", "format": "in vivo", "description": "This subject participated in several studies over 10 days. Prior to FDP inhalation, their baseline PEFR was 390 L/min. This value increased with each and every FDP treatment."}, "[6]": {"details": "one subject, reported after 10 days of FDP inhalations"}}, "note": "“And” between values parts separate entries of the source, which are not always exact repeats. Equal values may be shown once. “Also recorded” adds a separate entry of the source. Read-outs that look alike come from different tables or passages of the source.", "data": [{"compound": "O=C(COP(=O)(O)O)[C@@H](O)[C@H](O)[C@H](O)COP(=O)(O)O", "note": "[FDP, fructose-1,6-diphosphate]", "values": [{"measurement": "arterial pressure", "setting": "[1]; FDP 2.5 gm/kg IP 30 min before compound 48/80 5 mg/kg IP, vs saline group, P<0.005, FIG. 1", "result": "significantly higher than in the saline group"}, {"measurement": "mortality", "setting": "[1]; FDP 2.5 gm/kg IP before compound 48/80 5 mg/kg IP, survival = 48 hours, saline group 100%, P<0.001", "result": 20, "unit": "%"}, {"measurement": "plasma potassium", "setting": "[1]; FDP 2.5 gm/kg IP before compound 48/80 5 mg/kg IP, vs saline group, P<0.01, FIG. 2, 5 mg/kg", "result": "remained within normal values; also recorded: lower"}, {"measurement": "average arterial partial pressure of oxygen (PO2)", "setting": "[1]; FDP 2.5 gm/kg IP before compound 48/80, saline group 98±9.2", "result": "121±6.1", "unit": "mm Hg"}, {"measurement": "Na+--K+ ATPase activity", "setting": "[2]; oleander extract 1.0 mg", "result": "19.32 ± 0.62 micromoles of inorganic phosph"}, {"measurement": "Na+--K+ ATPase activity", "setting": "[2]; oleander extract 2.0 mg", "result": "15.75 ± 0.39 micromoles of inorganic phosph"}, {"measurement": "Activation Index", "setting": "rat T-lymphocyte; Con-A plus 1:10 dilution of 10% FDP stock, Con-A alone 30718 ± 4316, no Con-A 527 ± 139", "result": "101 ± 16", "unit": "counts/min"}, {"measurement": "Activation Index", "setting": "rat T-lymphocyte; Con-A plus 1:100 dilution of 10% FDP stock", "result": "190 ± 42", "unit": "counts/min"}, {"measurement": "Activation Index", "setting": "rat T-lymphocyte; Con-A plus 1:250 dilution of 10% FDP stock", "result": "383 ± 170", "unit": "counts/min"}, {"measurement": "Activation Index", "setting": "rat T-lymphocyte; Con-A plus 1:500 dilution of 10% FDP stock", "result": "3592 ± 974", "unit": "counts/min"}, {"measurement": "Activation Index", "setting": "rat T-lymphocyte; Con-A plus 1:1000 dilution of 10% FDP stock", "result": "12288 ± 1880", "unit": "counts/min"}, {"measurement": "Activation Index", "setting": "rat T-lymphocyte; Con-A plus 1:10,000 dilution of 10% FDP stock", "result": "19046 ± 3237", "unit": "counts/min"}, {"measurement": "ConA-induced activation and proliferation of T-cells", "setting": "rat T-lymphocyte; result in words, cyclosporine A tested at 0.5 to 500 ng/ml", "result": "able to block ConA activation of the lymphocytes; also recorded: inhibited the ConA-induced activation and proliferation of T-cells in a dose dependent manner"}, {"measurement": "RNA encoding the IL-2 protein", "setting": "[3]", "result": "no detectable levels of RNA encoding the IL-2 protein"}, {"measurement": "IL-2 production by the stimulated human T-lymphocytes", "setting": "human IL-2", "result": "no detectable IL-2"}, {"measurement": "arterial blood oxygen partial pressure, Baseline", "setting": "[4]; dogs pre-treated with aerosolized 10% FDP for 3 minutes, before methacholine", "result": "89 ± 1.74", "unit": "mm Hg"}, {"measurement": "arterial blood oxygen partial pressure (PaO2), 5 min", "setting": "[4]; dogs pre-treated with aerosolized 10% FDP, 5 min after methacholine, controls 47 ± 2.85, p = 0.007", "result": "70±5.62 mm Hg and 69 ± 6.49 mm Hg"}, {"measurement": "arterial blood oxygen partial pressure (PaO2), 15 min", "setting": "[4]; dogs pre-treated with aerosolized 10% FDP, 15 min after methacholine, controls 53 ± 3.86, p < 0.001", "result": "81 ± 3.36", "unit": "mm Hg"}, {"measurement": "PCO2", "setting": "[4]; dogs, methacholine challenge with FDP treatment", "result": "no consistent alterations"}, {"measurement": "PaO2 level at 5 minutes after FDP treatment", "setting": "[4]; five dogs treated with FDP after (not before) methacholine, p<0.006", "result": "64±4.26", "unit": "mm Hg"}, {"measurement": "PaO2 level at 30 minutes after FDP treatment", "setting": "[4]; five dogs treated with FDP after (not before) methacholine, p<0.01", "result": "80±4.04", "unit": "mm Hg"}, {"measurement": "PaO2 level at 15 minutes after FDP treatment", "setting": "[4]; five dogs treated with FDP after (not before) methacholine, p<0.02", "result": "72±1.84", "unit": "mm Hg"}, {"measurement": "side effects", "setting": "human volunteers; all tests on volunteers, other than decreased heart rates and increased pulmonary ventilation rates", "result": "no side effects were noticed"}, {"measurement": "blood pressure or body temperature", "setting": "human volunteers; five volunteers, 10% FDP nebulized", "result": "did not elicit any changes"}, {"measurement": "mean peak expiratory flow rate (PEFR) following FDP administration", "setting": "human volunteers; five volunteers, 10% FDP nebulized, 5 breaths (about 12 mg), baseline 471±29.6, P<0.005", "result": "529 ± 35.6", "unit": "L/min"}, {"measurement": "PEFR after inhalation session", "setting": "human volunteers; one volunteer, 20% FDP solution for 10 min, 700 mg inhaled, baseline 616", "result": 667, "unit": "L/min"}, {"measurement": "side effects", "setting": "human volunteers; one volunteer, high dosages (700 to 750 mg, 20% or 10% solution, ten minute inhalation)", "result": "no side effects were detected"}, {"measurement": "PEFR at 10 days after the first inhalation", "setting": "[5]; one subject with chronic cough, repeated FDP inhalation, baseline 390, P<0.01", "result": 520, "unit": "L/min"}, {"measurement": "breathing", "setting": "[5]; [6]", "result": "substantially improved"}, {"measurement": "coughing", "setting": "[5]; [6]", "result": "nearly disappeared"}]}, {"compound": "albuterol sulfate [reference compound]", "values": [{"measurement": "PEFR", "setting": "human volunteers; albuterol sulfate inhalation solution 0.005% w/v in 0.9% NaCl, two occasions, identical procedures", "result": "did not induce any significant change"}]}]}
